Data on one molecule can be found in patent US20060204457A1, “Cosmetic uv-screen compositions and aminobutadiene-based uv-absorbing complexes therefor” (priority 2003, published 2006).

A short description of this series: Dye stability under Xenon test conditions; UV absorption after Xenon exposure. Type of series: physicochemical. The note with it: thin layer on TAC base. The method, then:
Measurements are carried out at the Ci 4000 Xenon Weather-Ometer of Atlas Electric Devices Company. The extinction wavelength spectrum represents sunlight spectrum. Experiments are carried out with samples consisting of thin layers of UV absorbing complexes coated on TAC base materials, and dryed under air before Xenon radiation was started.
Solutions for coating on the TAC sheet materials are prepared by making a 5% gelatin solution of UV-gelatin in a suitable solvent (water/ethanol 50:50) for 30 minutes at a temperature of 40 C.
A fixed concentration of the UV absorbing complex was applied with a concentration of 5*10^−3 Mol/L
UV absorption of samples is measured with standard UV spectrophotometer system. UV absorption is directly correlated to the number of functional molecules in the samples after the Xenon treatment, and the results are listed in the following table.
UV absorption after Xenon radiation (in hours treatment time).

In the case of `O=c1c(O)c(-c2ccc(O)c(O)c2)oc2cc(O)cc(O)c12` [Quercetin], the “UV absorption after Xenon radiation” value is 0.85 (0 hours treatment time), 0.53 (40 hours treatment time), 0.20 (80 hours treatment time) and 0.14 (120 hours treatment time).
